Test results reported in US20240285785A1, “TARGETING SORTILIN” (priority 2022, published 2024).
Where a SMILES comes first, the peptide text is derived from it. [ ]: non-standard residue; d: D form. The star is where a group is joined. Dolaproine = CO[C@@H]([C@@H]1CCCN1)[C@@H](C)C(=O)O; Dil = CC[C@H](C)[C@H](NC)[C@@H](CC(=O)O)OC; X1 = C[C@@H](N*)[C@@H](O)c1ccccc1; NMeV = CN[C@H](C(=O)O)C(C)C

Legend:
[1] = Murine serum stability assay; type: in vitro ADME, mouse (CD-1); settings: male, CD-1, mouse, mouse serum, male CD-1 mouse serum, 37° C.; read-out: Murine serum stability assay, T1/2
Description: Serum was drawn from male CD-1 mice by Pharmidex. Lyophilized peptides were solubilized in DMSO and then further diluted into male mouse (CD-1) serum at 37° C. in duplicates. The reaction was incubated at 37° C. and samples extracted at 6 time points: 0, 0.16, 0.5, 1, 3, and 6 hrs. Acetonitrile (ACN) with internal standard (tolbutamide) was added to stop the incubation. Samples were centrifuged, and the supernatant was analyzed by HPLC-MS/MS for the parent compound.

MDA-MB-231 tumor cells = assay: MDA-MB-231 murine xenograft efficacy model; type: in vivo, BALB/c Nude mice
Description: Murine xenograft experiments were conducted at WuXi AppTec and/or Charles River Laboratories and the care and use of animals was conducted in accordance with the regulations of the Association for Assessment and Accreditation of Laboratory Animal Care (AAALAC). MDA-MB-231 tumor cells (ATCC, Manassas, VA, cat #HTB-26) were grown and maintained in L15 medium supplemented with 10% heat inactivated fetal bovine serum, 1% Antibiotic-Antimycotic, and L-glutamine (2 mM) at 37° C. in an atmosphere in 5% CO2, 95% air. BALB/c Nude, female, 6-8 weeks, weighing approximately 18-22 g were purchased from Vital River Laboratory Animal Technology Co., LTD. Mice were inoculated subcutaneously at the right flank with MDA-MB-231 tumor cells (e.g., triple negative breast cancer cells) (10×10^6) in 0.2 mL of PBS with Matrigel (1:1) for tumor development. Animals were randomized and treatment was started when the average tumor volume reached approximately 150-200 mm^3 for the efficacy study. Dosing volume was adjusted based on body weight and was administered at 10 ml/Kg. […] Free MMAE payload was also tested, and similarly dissolved in 25 mM Histidine 10% sucrose pH 7 and one or more of the following doses, 0.6, 0.06 mg/kg, were administered to the mice i.v. at a QW×4 schedule. Tumor sizes were measured twice weekly in two dimensions using a caliper, and the volume in mm^3 calculated using the formula: V=0.5 a×b^2, where a and b are the long and short diameters of the tumor, respectively. TGI was calculated for each group using the formula: TGI (%)=[1−(Ti−T0)/(Vi−V0)]×100; where Ti is the average tumor volume of a treatment group on a given day, T0 is the average tumor volume of the treatment group on the first day of treatment, Vi is the average tumor volume of the vehicle control group on the same day with Ti, and V0 is the average tumor volume of the vehicle group on the first day of treatment.

[2] = Maximum tolerated dose (MTD) study; type: in vivo, BALB/c Nude mice; settings: 10 mg/kg single i.v. dose
Description: BALB/c Nude mice, female, 6-8 weeks, weighing approximately 18-22 g were purchased from the Shanghai SLAC Laboratory Animal Co., LTD. MTD studies were conducted at WuXi AppTec and the care and use of animals was conducted in accordance with the regulations of the Association for Assessment and Accreditation of Laboratory Animal Care (AAALAC). Two MTD studies were performed (a) a low dose study with doses ranging from 0.1, 0.5, 1 and 3 mg/kg and (b) a high dose study with doses ranging from 3, 5, 10 mg/kg. Dosing volume was determined based on body weight (10 ul/g) and PDCs were dissolved in 25 mM Histidine 10% sucrose pH 7 and administered i.v. at a single dose at day 0. The treatment and observation were conducted up to 7 days and MTD was defined by ≥20% body weight loss. Body weights were measured daily, death and observed clinical signs were recorded.
Doses of 3, 5, and 10 mg/kg were administered. MTD was defined by ≥20% body weight loss and body weight measured daily.

[3] = Dynamic light scattering (DLS) solubility/aggregation; type: physicochemical; settings: working concentrations (250 nM, PBS, pH 7.4)
Description: Samples were spun down on a bench top centrifuge, 15 minutes, 15,000 rpm, room temperature, to pellet any aggregated peptide/dust before taking a measurement. Visual inspection of the tubes was used to identify if any large pellets were formed, which is indicative of large aggregates. […] The plate was then transferred and read on the DLS instrument (Wyatt Technology DynaPro Plate Reader III) at 25° C.

With `CCCC[C@@H]1NC(=O)[C@H](CCCNC(=N)N)NC(=O)[C@H](CCCNC(=N)N)NC(=O)[C@H](CC(N)=O)NC(=O)[C@H](CCC(=O)O)NC(=O)[C@@H](NC(=O)[C@H](Cc2c[nH]c3ccccc23)NC(=O)[C@H](CCCNC(=N)N)NC(C)=O)CSSC[C@@H](C(=O)N[C@@H](CCCNC(=N)N)C(=O)N[C@@H](CCC(N)=O)C(=O)N[C@H](C(=O)N[C@@H](CC(C)(C)C)C(=O)O)C(C)(C)C)NC(=O)[C@H]([C@@H](C)O)NC(=O)[C@H](Cc2ccccc2)NC1=O` [Arb_cyclic_G23, RWCENRR(Nle)FTCRQ(B13)(F02)] as the compound, how does the half-life [1] read?
Its half-life is 38.1 min.

For `CC[C@H](C)[C@@H]([C@@H](CC(=O)N1CCC[C@H]1[C@H](OC)[C@@H](C)C(=O)N[C@H](C)[C@@H](O)c1ccccc1)OC)N(C)C(=O)[C@@H](NC(=O)[C@@H](NC)C(C)C)C(C)C` [MMAE, Monomethyl auristatin E, reference compound] (H-[NMeV]V[Dil][Dolaproine]-X1), which body weight variation (MDA-MB-231 tumor cells; Example 6, PDC 3, 1, 0.3 mg/kg, free MMAE at equivalency to 3 mg/kg PDC) is on record?
The body weight variation was “body weight fluctuations corresponding to treatment times”.

And the body weight loss (MDA-MB-231 tumor cells; Example 8, PDC 3 mg/kg, free MMAE 0.6 mg/kg, i.v. QW×4)?
The body weight loss was “body weight fluctuations corresponding to treatment times”.

Which “toxicity” value [2] does the source give for `CC[C@H](C)[C@@H]([C@@H](CC(=O)N1CCC[C@H]1[C@H](OC)[C@@H](C)C(=O)N[C@H](C)[C@@H](O)c1ccccc1)OC)N(C)C(=O)[C@@H](NC(=O)[C@H](C(C)C)N(C)C(=O)OCc1ccc(NC(=O)[C@H](CCCNC(N)=O)NC(=O)[C@@H](NC(=O)CCCC(=O)NCCC(=O)N(C)CC(=O)N(C)CC(=O)N(C)CC(=O)N(C)CC(=O)N[C@@H](CC(=O)O)C(=O)N[C@@H](CC(=O)O)C(=O)N2CCC[C@H]2C(=O)N[C@@H](CCCNC(=N)N)C(=O)N[C@@H](C)C(=O)N2CCC[C@H]2C(=O)N[C@@H](Cc2c[nH]c3ccccc23)C(=O)N2CCC[C@H]2C(=O)N[C@@H](C)C(=O)N[C@@H](CC(C)C)C(=O)N[C@@H](CCC(N)=O)C(=O)N[C@@H](CCCNC(=N)N)C(=O)N[C@@H](CC(C)C)C(=O)N[C@@H](C)C(=O)N[C@@H](CC(C)C)C(=O)N[C@@H](CCCNC(=N)N)C(=O)N[C@@H](CC(C)C)C(=O)O)C(C)C)cc1)C(C)C` [PRGN_RL_PDC] here?
Its value is “mild toxicity”.

For `CC(C)C[C@H](NC(=O)[C@H](CC(C)C)NC(=O)[C@H](CCC(N)=O)NC(=O)[C@H](CCCNC(=N)N)NC(=O)[C@H](CC(C)C)NC(=O)[C@H](C)NC(=O)[C@@H]1CCCN1C(=O)[C@H](CC(=O)O)NC(=O)[C@H](CCCNC(=N)N)NC(=O)[C@H](CC(C)C)NC(=O)[C@@H]1CCCN1C(=O)[C@H](C)NC(=O)[C@H](CC(=O)O)NC(=O)[C@H](Cc1c[nH]c2ccccc12)NC(=O)[C@H](CCCNC(=N)N)NC(=O)[C@@H]1CCCN1C(=O)[C@H](C)N)C(=O)O` [PRGN_WT], which “solubility (DLS)” value [3] is on record?
The value was “good solubility”.
